Assay results from patent publication US20060211606A1, “Peptides” (priority 2005, published 2006).
*1 amine or outer side, *2 acyl side, *3 side chain or, on linkers, in order; H or OH if unused. [ ]: non-standard residue; d: D form. PEG (Jeffamine) = not defined here; Suc = O=C(CCC(=O)[*:2])[*:1]

How the values were obtained:
[1] = test system: rat organotypic hippocampal cultures; assay: TBH oxidative stress in rat organotypic hippocampal cultures, PI-stained cell death; type: cell-based; conditions: for time for which the neuroprotective effect was observed: rat hippocampal slices after TBH challenge; for protection against TBH-induced cell death: rat hippocampal slices, 24 hours, peptide 10 ng/ml as printed
Experimental: Hippocampal slices were prepared from 7-10 days old Wistar rats according to the method of Stoppini et al (1991) with minor modifications according to Sarnowska (2002). Briefly, rats were anaesthetised with Vetbutal, ice-cooled and decapitated. Brains were quickly removed to ice-cold working solution pH 7.2: 96% of HBSS/HEPES-(Ca2^+ and Mg2^+ free) containing 2 mmol/L L-glutamine, 5 mg/ml glucose, 1% amphotericine B, 0.4% penicillin-streptomycin. Hippocampi were separated and cut into 400 μm slices using McIlwain tissue chopper. […] Four selected slices were settled on each membrane. Slices were cultivated for two weeks at 32° C. in 5% CO2 atmosphere of 100% humidity. The viability of the slices was checked daily under the light microscopy and evaluated additionally on the day of experiment by propidium iodide staining and observed under fluorescent microscope (Zeiss Axiovert 25) with MC-10095 camera (Carl Zeiss Jena GmbH) in order to record initial PI uptake (Sarnowska, 2002).
Oxidative stress was induced after 14 days in culture by adding 30 mM TBH ([…]) for 3 hours. After that time the slices were transferred to the fresh culture medium. Resulting cell death was assessed 24 and 48 h after the beginning of the experiment.
In order to investigate a pathway in which the MGF acts, a specific anti-IGF-1 receptor (AB-1) blocking antibody (Oncogene) was included in the medium 1 hour before the slices were exposed to TBH and MGF or IGF-1 peptide. The concentration of the antibody (1000 ng/ml) was used according to the manufacturer's recommendation.
To obtain detailed images of the slices, a confocal laser scanning microscope (Zeiss LSM 510) was used. A helium-neon laser (543 nm) was used for the excitation of propidium iodide (PI). […] Quantitative measurement of tissue deterioration was performed using image analyser KS 300 (Carl Zeiss Jena GmbH).
Cell damage was quantified on fluorescence images of PI-stained cultures 24 and 48 hours after TBH challenge. The relative extent of cell death was calculated from each standardized CA1 region as follows: % of dead cells=(experimental fluorescent intensity (FI)−background FI)/(maximal FI−background FI)×100, where maximal FI was obtained by killing all cells with exposure to 100 mM glutamate.
All the measurements were repeated for 5 independent culture preparations and 8 slices were used for each experimental condition. Statistical significance of the differences between the results was calculated using one-way Anova followed by Dunnet's test, (GraphPad Prism 3.02).
Rat brain slices were isolated following induction of localized damage by TBH (tert-butyl hydroperoxide) as discussed above. The resulting cell death in treated and non-treated brain slices was determined. […]

[2] = test system: dystrophic muscles of the mdx mouse; assay: Intramuscular injection into dystrophic muscle of mdx mice, tetanic force; type: in vivo; conditions: i.m. two per week for three weeks
Experimental: Greater increases, of up to around 35% (FIGS. 3A, 3B), were recorded for intramuscular injections (two per week for three weeks) in the dystrophic muscles of the mdx mouse, which has the same type of mutation as that in human Duchenne muscular dystrophy.

[3] = test system: normal craniofacial (masseter) primary cultures; assay: Desmin positive cell proliferation, normal craniofacial (masseter) primary cultures; type: cell-based, human; conditions: for desmin positive cells as percentage of total cells: peptide alone, 10 ng/ml, serum-free defined media, mean±s.d.
Text: Human primary muscle cell cultures were isolated as previously described [Lewis et al., 2000; Sinanan et al., 2004]. Briefly, following informed consent, craniofacial (masseter) muscle biopsies were obtained from healthy adult and CMD patients during elective surgery at the Eastman and Middlesex Hospitals, London, UK. Human lower limb (vastus lateralis) muscle samples were obtained from consenting, adult healthy, FSHD and ALS patients by needle biopsy under local anaesthesia at the Royal Free Hospital, London, UK. Biopsies were pooled from several patients with the same disorder to obtain sufficient cell numbers in the primary cultures. These were washed with antibiotic (penicillin, 100 U/ml; streptomycin, 100 μg/ml; fungizone, 2.5 μg/ml; Invitrogen) supplemented DMEM (high glucose; Invitrogen), scissor-minced and tissue fragments plated into 0.2% gelatin-coated (Sigma-Aldrich) T150 cm^2 culture flasks (Helena Biosciences). Explant cultures were incubated in serum-containing Growth Media (sGM), composed of DMEM, 20% FCS (PAA Laboratories), penicillin (100 U/ml) and streptomycin ([…]) (Invitrogen), and maintained at 37° C. in humidified 95% air with 5% CO2. The first wave of migration of mononuclear cells from the explant was designated the […]-wave and this population was used throughout this study. Migratory human muscle cell were enzymatically harvested using trypsin-EDTA (Invitrogen) and subcultured in sGM until 70-80% confluency. Passage number x (Px), was defined as the xth sequential harvest of subconfluent cells. All experiments were performed using P3-5 cohorts. The expanded cells were then stored under cryogenic conditions until they were used in the experiments described below. At least 6 runs were made for each of the treatments used for each diseased muscle culture as well as for the two types of healthy muscle.
Assessment of the number of myogenic precursors was performed as described previously (Sinanan et al., 2004). Cells were re-plated on gelatin-coated (0.2%) 13 mm coverslips at an initial density of 4.5×10^3 cells cm^−2. […]
At the appropriate time-points, cells were fixed with methanol for 10 min (−20° C.), followed by detergent permeabilization with 0.5% Triton-X100 for 10-15 min. […] Cell-associated fluorescence and morphology, were visualized by epi-fluorescence and Leica Modulation Contrast (LMC) microscopy respectively, using an inverted Leica DMIRB microscope equipped with Leica FW4000 image processing software. For the proliferation assay, all blue and green fluorescent positive cells were counted in a field. […]

Substance	time for which the neuroprotective effect was observed [1]	protection against TBH-induced cell death [1] [%]	percentage change in tetanic force (increase in muscle strength) [2]	desmin positive cells as percentage of total cells ([3]; normal craniofacial) [%]	desmin positive cells as percentage of total cells, IGF-I added ([3]; normal craniofacial, stabilised peptide in combination with IGF-I (10 ng/ml each)) [%]	desmin positive cells as percentage of total cells, plus anti-IGF-I receptor antibody Ab-1 ([3]; normal muscle, stabilised peptide plus Ab-1) [%]
IGF-I: IGF-I receptor binding domain encoded by Exons 3 and 4, common to all splice variants, approximately 70 amino acids [reference compound]	up to 24 hours	72	around 5%	58.4±4.2	–	–
stabilised peptide: SEQ ID NO: 15 with D-Arginine at positions 14 and 15, N-terminus attached to PEG (Jeffamine) via succinic acid bridge, amidated at C-terminus ({PEG (Jeffamine)-Suc}-YQPPSTNKNTKSQ[dR][dR]KGSTFEEHK-NH2; reading uncertain)	≥ 48 h	85	≤ 35%	68.8±3.9	59.5±4.2	71.1±6.2
